Patent US12630501B2, “Anti-fibrotic compounds and use thereof” (HADASIT MEDICAL RESEARCH SERVICES AND DEVELOPMENT LTD., priority 2019, dated 2026)

How the values were obtained:
[1] = molecular target: HDAC2 (Homo sapiens, UniProt Q92769); details: prostate cancer cells; cited from earlier work
[2] = tested on: IPF myofibroblasts of CCL-191 line; experiment: Expression of specific genes in IPF myofibroblasts incubated with CMH (Table 1); assay type: cell-based, human; details: CCL-191 incubated with CMH; 2-^ΔΔCt, mean±standard error
Procedure: Table 1 below indicates the expression of specific genes in IPF myofibroblasts of CCL-191 line incubated with CMH and the vehicle, correspondingly, calculated by 2-^ΔΔCt the data is represented as mean±standard error).

[3] = molecular target: T1, HDAC7 (Homo sapiens, UniProt Q8WUI4); details: prostate cancer cells; cited from earlier work
T1 sequence (Q8WUI4 1-952): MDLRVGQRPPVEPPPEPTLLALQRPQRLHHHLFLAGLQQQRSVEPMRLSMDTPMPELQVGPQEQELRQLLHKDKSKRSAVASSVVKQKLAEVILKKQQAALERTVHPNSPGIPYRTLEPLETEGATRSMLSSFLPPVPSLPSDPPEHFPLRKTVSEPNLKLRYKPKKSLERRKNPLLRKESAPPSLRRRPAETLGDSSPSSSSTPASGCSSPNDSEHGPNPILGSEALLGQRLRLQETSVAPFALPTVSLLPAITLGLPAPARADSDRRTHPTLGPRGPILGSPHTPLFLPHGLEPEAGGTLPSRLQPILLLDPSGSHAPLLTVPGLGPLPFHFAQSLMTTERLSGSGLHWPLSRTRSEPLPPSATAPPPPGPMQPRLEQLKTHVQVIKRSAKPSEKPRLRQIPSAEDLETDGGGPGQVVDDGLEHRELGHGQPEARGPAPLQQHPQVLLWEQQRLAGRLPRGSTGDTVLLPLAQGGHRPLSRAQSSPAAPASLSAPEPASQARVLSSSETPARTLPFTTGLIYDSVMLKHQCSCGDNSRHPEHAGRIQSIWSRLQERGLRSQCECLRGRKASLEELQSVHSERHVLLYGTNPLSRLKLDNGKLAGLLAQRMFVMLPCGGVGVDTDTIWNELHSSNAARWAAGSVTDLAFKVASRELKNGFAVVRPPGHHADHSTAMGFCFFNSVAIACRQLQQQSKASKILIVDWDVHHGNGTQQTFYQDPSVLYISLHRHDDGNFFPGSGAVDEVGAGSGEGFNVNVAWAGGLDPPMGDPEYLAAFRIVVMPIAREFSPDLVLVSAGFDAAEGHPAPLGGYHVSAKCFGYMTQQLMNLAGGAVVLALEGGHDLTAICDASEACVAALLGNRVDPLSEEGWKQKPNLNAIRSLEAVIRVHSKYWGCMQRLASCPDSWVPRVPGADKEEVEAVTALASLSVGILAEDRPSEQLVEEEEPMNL

[4] = molecular target: HDAC1 (Homo sapiens, UniProt Q13547); details: prostate cancer cells; cited from earlier work
[5] = tested on: FLIP; experiment: FLIP protein by Western blot and flow cytometry in IPF-lung myofibroblasts; assay type: cell-based, human; details: CMH 30 μM, 72 h
Procedure: Human lung myofibroblasts Differentiated fibroblasts from IPF-lungs and controls from patient lung biopsies performed for tumor diagnosis were obtained under a protocol detailed in Wallach-Dayan et al., J. Autoimmun. 59: 67-76, 2015. LL 97A (AlMy) (ATCC® CCL-191™)-IPF-lung, and LL 24 (ATCC® CCL-151™)-normal lung fibroblast cell lines were used.
FLIP protein in lung myofibroblasts Standard WB and flow cytometry were performed as described in Cohen et al., Am. J. Respir. Cell Mol. Biol. 40: 231-238, 2009.
FLIP downregulation from an OD of 1.85 to 0.49 (about 3.5-fold) was detected in WB (FIG. 4F), and a […] from a mean fluorescence intensity (MFI)=10^3 to only 10^1 was detected with flow cytometry (FIG. 4G). Thus, SIRT1-mediated Ku70-deacetylation stabilizes IPF-lung myofibroblast FLIP via Ku70/FLIP complex. This effect of CMH on Ku70 further disrupts Ku70/FLIP complex and destabilizes FLIP in IPF-lung myofibroblasts.
IPF cell line ATCC-191 (0.5×10^6), were exposed in culture (10% DMEM) to a compound of Formula 6 (1 or 3 μM) vs. 4% DMSO (vehicle) for 16 h. Ku70 immunoprecipitation with subsequent pan-acetyl (FIG. 8A) and immunoblots of Ku70 with anti-Ku70 mAb (FIG. 8B) or FLIP with anti-FLIP mAb (FIG. 8C) were measured. […] IPF-lung myofibroblasts decreased FLIP expression from an OD of 1.00 to 0.51 (about twofold, FIG. 8C).
IPF cell line ATCC-191 (0.5×10^6), were exposed in culture (10% DMEM) to a compound of Formula 12 (1 μM), vs. 4% DMSO (vehicle) for 16 h. Immunoblots of FLIP with anti-FLIP mAb were performed (FIG. 9). […] Thus, the compound of Formula 12 attenuates FLIP stabilization in IPF-lung myofibroblast.

Chain of HDAC1 (Q13547 whole entry, species assumed): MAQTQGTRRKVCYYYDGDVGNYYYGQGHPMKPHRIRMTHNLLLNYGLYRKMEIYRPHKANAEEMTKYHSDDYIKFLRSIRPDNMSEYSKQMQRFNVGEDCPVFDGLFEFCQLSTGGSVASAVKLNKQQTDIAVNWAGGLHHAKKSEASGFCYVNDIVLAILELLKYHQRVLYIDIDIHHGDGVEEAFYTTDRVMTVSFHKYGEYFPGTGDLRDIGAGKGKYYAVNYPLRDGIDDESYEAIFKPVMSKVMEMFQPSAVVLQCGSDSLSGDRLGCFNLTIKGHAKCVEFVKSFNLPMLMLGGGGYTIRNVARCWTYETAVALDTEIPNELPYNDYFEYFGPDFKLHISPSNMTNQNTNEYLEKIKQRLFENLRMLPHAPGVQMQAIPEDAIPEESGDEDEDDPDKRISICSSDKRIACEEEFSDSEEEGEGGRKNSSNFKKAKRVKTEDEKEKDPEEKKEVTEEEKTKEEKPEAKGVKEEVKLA
Chain of HDAC2 (Q92769 whole entry, species assumed): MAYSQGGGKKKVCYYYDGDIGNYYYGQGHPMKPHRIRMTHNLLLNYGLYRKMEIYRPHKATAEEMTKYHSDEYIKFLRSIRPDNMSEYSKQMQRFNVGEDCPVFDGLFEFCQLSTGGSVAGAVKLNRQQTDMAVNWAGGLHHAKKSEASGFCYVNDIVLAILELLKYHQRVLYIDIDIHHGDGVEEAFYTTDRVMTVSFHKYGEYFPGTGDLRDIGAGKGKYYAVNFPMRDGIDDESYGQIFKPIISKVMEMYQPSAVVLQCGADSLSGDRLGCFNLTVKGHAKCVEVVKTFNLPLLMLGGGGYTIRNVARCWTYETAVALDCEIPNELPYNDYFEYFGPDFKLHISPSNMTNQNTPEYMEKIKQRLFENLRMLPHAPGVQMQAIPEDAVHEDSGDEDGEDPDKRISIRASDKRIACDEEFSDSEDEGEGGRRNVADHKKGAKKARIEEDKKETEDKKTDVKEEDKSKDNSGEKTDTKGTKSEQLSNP

## Cc1cc(Cl)ccc1OCCCC(=O)NO [CMH, 4-(4-chloro-2-methylphenoxy)-N-hydroxybutanamide]
[1]
  Inhibition of HDAC2: not inhibited
[2]
  AIFM1 expression, M ± m: 12.3 ± 2.89
  BAX expression, M ± m: 319.29 ± 78.06
  BCL2L10 expression, M ± m: 0.13 ± 0.05
  BCL2L11 expression, M ± m: 0.58 ± 0.09
  CASP8 expression, M ± m: 7.13 ± 4.18
  CASP9 expression, M ± m: 9.57 ± 6.69
  CFLAR expression, M ± m: 3.5 ± 1.42
  CFLAR-AS1 expression, M ± m: 0.11 ± 0.04
  DIABLO expression, M ± m: 13.48 ± 3.27
  E2F1 expression, M ± m: 0.39 ± 0.21
  HIC1 expression, M ± m: 0.68 ± 0.44
  MCL1 expression, M ± m: 67.57 ± 34.04
  PPP1R13B expression, M ± m: 0.1 ± 0.05
  PRKCD expression, M ± m: 9 ± 4
  PRKCDBP expression, M ± m: 21.87 ± 9.21
  SIRT1 expression, M ± m: 0.48 ± 0.04
  TP53AIP1 expression, M ± m: 1.11 ± 0.2
  TP53INP2 expression, M ± m: 8.16 ± 0.54
  TP53 expression, M ± m: 1.8 ± 1.19
  XRCC6 expression, M ± m: 84.85 ± 22.88
[3]
  Inhibition of HDAC7: not inhibited
[4]
  Inhibition of HDAC1: not inhibited
[5]
  FLIP downregulation in WB: about 3.5 fold
  FLIP reduction by flow cytometry: 60%
[5]; from 1.85
  FLIP OD in WB: 0.49 OD
[5]; from 10^3
  FLIP mean fluorescence intensity (MFI), flow cytometry: 10^1
